In US20100137312A1, “NOVEL AROMATIC HETEROCYCLIC CARBOXYLIC ACID AMIDE DERIVATIVES USEFUL AS POTASSIUM CHANNEL MODULATORS” (neuroSearch A/S, priority 2007, published 2010):

Columns and labels:
[1] = target: T1, BK channels heterologously expressed in Xenopus laevis oocytes (Homo sapiens, UniProt Q12791); experiment: BK channel opening activity, two-electrode voltage clamp, left-shift of the BK activation curve; type: cell-based; details: 0.01-31.6 μM compound, sigmoidal logistic fit; for EC50: ΔV at control conductance level of +100 mV, read-out: EC50 for the left-shift of the BK activation curve (ΔV vs. concentration)
T1 construct: expressed in transfected cells; host or cells: Xenopus laevis oocytes
T1 sequence (Q12791 whole entry): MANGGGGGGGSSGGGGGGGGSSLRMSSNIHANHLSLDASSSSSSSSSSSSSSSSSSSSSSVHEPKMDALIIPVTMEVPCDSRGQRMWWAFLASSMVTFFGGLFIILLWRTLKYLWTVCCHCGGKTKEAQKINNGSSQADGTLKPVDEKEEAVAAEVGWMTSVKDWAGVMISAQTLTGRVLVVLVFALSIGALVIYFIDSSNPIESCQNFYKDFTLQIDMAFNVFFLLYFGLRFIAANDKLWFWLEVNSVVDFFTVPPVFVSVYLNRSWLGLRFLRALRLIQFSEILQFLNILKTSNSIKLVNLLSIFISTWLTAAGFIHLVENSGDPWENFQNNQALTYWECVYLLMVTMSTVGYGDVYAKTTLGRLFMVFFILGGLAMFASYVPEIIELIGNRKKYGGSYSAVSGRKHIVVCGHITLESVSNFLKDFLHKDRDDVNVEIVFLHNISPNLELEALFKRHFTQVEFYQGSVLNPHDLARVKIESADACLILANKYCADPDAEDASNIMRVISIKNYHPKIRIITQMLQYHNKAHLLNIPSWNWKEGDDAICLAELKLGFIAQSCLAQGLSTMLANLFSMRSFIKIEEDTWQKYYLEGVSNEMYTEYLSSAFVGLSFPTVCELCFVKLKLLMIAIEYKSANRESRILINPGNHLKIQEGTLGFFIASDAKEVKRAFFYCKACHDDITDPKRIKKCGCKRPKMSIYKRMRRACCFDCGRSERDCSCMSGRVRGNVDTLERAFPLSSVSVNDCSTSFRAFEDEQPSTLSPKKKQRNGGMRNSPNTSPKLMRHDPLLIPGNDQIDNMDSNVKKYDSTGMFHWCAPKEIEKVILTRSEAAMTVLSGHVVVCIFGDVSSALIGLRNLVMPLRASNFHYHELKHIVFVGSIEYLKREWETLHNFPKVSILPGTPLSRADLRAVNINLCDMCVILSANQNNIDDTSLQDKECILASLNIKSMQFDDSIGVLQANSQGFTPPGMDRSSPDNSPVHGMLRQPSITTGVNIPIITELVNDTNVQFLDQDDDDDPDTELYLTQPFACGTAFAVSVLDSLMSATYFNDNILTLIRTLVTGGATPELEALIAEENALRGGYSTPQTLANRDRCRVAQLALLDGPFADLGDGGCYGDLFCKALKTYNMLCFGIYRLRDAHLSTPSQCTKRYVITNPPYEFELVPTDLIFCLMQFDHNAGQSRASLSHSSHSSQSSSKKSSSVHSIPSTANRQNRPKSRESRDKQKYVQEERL
Protocol: In this example the BK channel opening activity of Compound 2 (FIGS. 1A and 1B), Compound 1 (FIGS. 2A and 2B) and Compound 9 (FIGS. 3A and 3B) is determined using BK channels heterologously expressed in Xenopus laevis oocytes.
The electrical current through the BK channel is measured using conventional two-electrode voltage clamp. BK currents are activated by repeating ramp protocols. In brief, the membrane potential is continuously changed from −120 mV to +120 mV within 2 s. The threshold for BK activation is approximately +30 mV under control conditions. Compounds are applies for 100 s during which the ramp protocol is repeated 10 times with 10 s intervals. In between the ramp protocols the membrane potential is clamped at −80 mV. The first three compound applications are control blanks where the current level is allowed to stabilize. In the subsequent 8 applications increasing concentrations (0.01-31.6 μM) of compound is applied and a marked increase in the current level at depolarizing potentials is observed.
In order to evaluate the ability of the compounds to shift the BK activation curve towards lower membrane potentials, the BK current was transformed into conductance by using Ohm's law g=I/(Ememb−Erev), where g is the conductance, I is the current, Ememb is the membrane potential and Erev is the reversal potential. The extracellular solution for these experiments contains 2.5 mM K^+and the intracellular K^+concentration of an oocyte is estimated to be 100 mM. Under those conditions, Nernst equation predicts a reversal potential of Erev=−93.2 mV. The control conductance level at a membrane potential of +100 mV was calculated, and the compound effect was evaluated as the potential difference, ΔV, to the membrane potential at which the same conductance level was obtained in the presence of compound.
The concentration response curve for this potential difference was fitted to the sigmoidal logistic equation: ΔV=ΔVmax/(1+(EC50/[compound])^n), where ΔVmax represents the maximal left shift of the BK activation curve, EC50 is the concentration causing a half maximal response, and n is the slope coefficient.

Compound | maximal left-shift of the BK activation curve (ΔVmax) [1] [mV] | EC50 [1] [µM] | melting point [°C]
O=C(Nc1cc(Cl)ccc1-c1nnn[nH]1)c1cc(-c2ccc(Cl)cc2)oc1C(F)(F)F [Compound 1, 5-(4-Chloro-phenyl)-2-trifluoromethyl-furan-3-carboxylic acid [5-chloro-2-(1H-tetrazol-5-yl)-phenyl]-amide] | −88 | 4.4 | –
O=C(Nc1cc(Cl)ccc1-c1nnn[nH]1)c1cnn(-c2ccc(Cl)cc2)c1C(F)(F)F [Compound 2, 1-(4-Chloro-phenyl)-5-trifluoromethyl-1H-pyrazole-4-carboxylic acid [5-chloro-2-(1H-tetrazol-5-yl)-phenyl]-amide] | −94 | 2.4 | 176.3 to 180.4
CS(=O)(=O)NC(=O)c1ccc(Cl)cc1NC(=O)c1cc(-c2ccc(Cl)cc2)oc1C(F)(F)F [Compound 5, 5-(4-Chloro-phenyl)-2-trifluoromethyl-furan-3-carboxylic acid (5-chloro-2-methanesulfonylaminocarbonyl-phenyl)-amide] | – | – | 259 to 262
O=C(Nc1cc(Cl)ccc1OCc1nnn[nH]1)c1cc(-c2ccc(Cl)cc2)oc1C(F)(F)F [Compound 7, 5-(4-Chloro-phenyl)-2-trifluoromethyl-furan-3-carboxylic acid [5-chloro-2-(1H-tetrazol-5-ylmethoxy)-phenyl]-amide] | – | – | 226.9 to 236.1
Cc1nc(-c2ccc(C(F)(F)F)cc2)sc1C(=O)Nc1cc(Cl)ccc1-c1nnn[nH]1 [Compound 9, 4-Methyl-2-(4-trifluoromethyl-phenyl)-thiazole-5-carboxylic acid [5-chloro-2-(1H-tetrazol-5-yl)-phenyl]-amide] | −99 | 0.97 | 325 to 337.2
Cc1oc(-c2ccc(Cl)cc2)cc1C(=O)Nc1cc(Cl)ccc1-c1nnn[nH]1 [Compound 12, 5-(4-Chloro-phenyl)-2-methyl-furan-3-carboxylic acid [5-chloro-2-(1H-tetrazol-5-yl)-phenyl]-amide] | – | – | 246.7 to 255.4
O=C(O)c1cc(F)c(F)cc1NC(=O)c1cc(-c2ccc(Cl)cc2)oc1C(F)(F)F [Compound 13, 2-{[5-(4-Chloro-phenyl)-2-trifluoromethyl-furan-3-carbonyl]-amino}-4,5-difluoro-benzoic acid] | – | – | 337.2 to 340.2
Cc1oc(-c2ccc(Cl)cc2)cc1C(=O)Nc1cc(Cl)ccc1-c1noc(=O)[nH]1 [Compound 20, 5-(4-Chloro-phenyl)-2-methyl-furan-3-carboxylic acid [5-chloro-2-(5-oxo-4,5-dihydro-[1,2,4]oxadiazol-3-yl)-phenyl]-amide] | – | – | 248.1 to 250.9
